According to ChEMBL document CHEMBL4732247, “Discovery of A031 as effective proteolysis targeting chimera (PROTAC) androgen receptor (AR) degrader for the treatment of prostate cancer” (Eur J Med Chem, 2021):
The source made the active and inactive calls. No cut-off for these calls is given here.

Columns and labels:
VCaP [1] = assay: Cytotoxicity against human VCaP cells assessed as growth inhibition after 4 days by CCK8 assay; format: functional, cell-based; conditions: dose 0.032-4 µM, time 4.0 day
VCaP [2] = assay: Cytotoxicity against human VCaP cells assessed as growth inhibition at 4 uM after 4 days by CCK8 assay relative to control; format: functional; conditions: 96 h, time 4 day, read-out: GI
VCaP [3] = assay: Cytotoxicity against human VCaP cells assessed as growth inhibition at 0.16 uM after 4 days by CCK8 assay relative to control; format: functional; conditions: 96 h, time 4 day, read-out: GI
VCaP [4] = assay: Cytotoxicity against human VCaP cells assessed as growth inhibition at 0.8 uM after 4 days by CCK8 assay relative to control; format: functional; conditions: 96 h, time 4 day, read-out: GI
VCaP [5] = assay: Cytotoxicity against human VCaP cells assessed as growth inhibition at 0.032 uM after 4 days by CCK8 assay relative to control; format: functional; conditions: 96 h, time 4 day, read-out: GI
[6] = Toxicity in AB zebra fish assessed as mortality rate at 5 uM after 5 days relative to control; parameters: species or system Danio rerio; conditions: zebrafish, time 5 day
VCaP [7] = assay: Antitumour activity against human VcaP cells xenografted in AB zebra fish assessed as tumour growth inhibition at 5 uM after 5 days by CM-D11 dye based fluorescence microscopic method; conditions: 120 h, read-out: TGI
[8] = Toxicity in AB zebra fish assessed as mortality rate at 10 to 200 uM after 5 days relative to control; parameters: species or system Danio rerio; conditions: zebrafish, dose 10-200 µM, time 5 day
[9] = Toxicity in AB zebra fish assessed as rolled over at 5 uM after 5 days relative to control; parameters: species or system Danio rerio; conditions: zebrafish, 120 h, time 5 day
[10] = Toxicity in AB zebra fish assessed as maximum non-toxic concentration after 5 days; parameters: species or system Danio rerio; conditions: zebrafish, time 5 day, read-out: MTC
[11] = Toxicity in AB zebra fish assessed as mortality rate at 6.25 to 25 uM after 5 days relative to control; parameters: species or system Danio rerio; conditions: zebrafish, dose 6.25-25 µM, time 5 day
VCaP [12] = assay: Cytotoxicity against human VCaP cells assessed as growth inhibition at 0.25 uM after 4 days by CCK8 assay relative to control; format: functional; conditions: 96 h, time 4 day, read-out: GI
VCaP [13] = assay: Cytotoxicity against human VCaP cells assessed as growth inhibition at 0.125 uM after 4 days by CCK8 assay relative to control; format: functional; conditions: 96 h, time 4 day, read-out: GI
VCaP [14] = assay: Antitumour activity against human VcaP cells xenografted in AB zebra fish assessed as tumour growth inhibition at 2.8 uM after 5 days by […] dye based fluorescence microscopic method; format: functional; conditions: 120 h, time 5 day, read-out: TGI
[15] = Toxicity in AB zebra fish assessed as toxic phenotype at 6.25 to 25 uM after 5 days relative to control; parameters: species or system Danio rerio; conditions: zebrafish, 120 h, dose 6.25-25 µM, time 5 day
[16] = target: T1, von Hippel-Lindau disease tumor suppressor/Androgen receptor (Homo sapiens) (UniProt P10275+P40337); assay: Protac activity at VHL3/AR in human VCAP cells assessed as induction of AR degradation at 2 uM after 2 hrs by western blot analysis relative to control; format: cell-based
T1 sequence (P10275 whole entry, looked up): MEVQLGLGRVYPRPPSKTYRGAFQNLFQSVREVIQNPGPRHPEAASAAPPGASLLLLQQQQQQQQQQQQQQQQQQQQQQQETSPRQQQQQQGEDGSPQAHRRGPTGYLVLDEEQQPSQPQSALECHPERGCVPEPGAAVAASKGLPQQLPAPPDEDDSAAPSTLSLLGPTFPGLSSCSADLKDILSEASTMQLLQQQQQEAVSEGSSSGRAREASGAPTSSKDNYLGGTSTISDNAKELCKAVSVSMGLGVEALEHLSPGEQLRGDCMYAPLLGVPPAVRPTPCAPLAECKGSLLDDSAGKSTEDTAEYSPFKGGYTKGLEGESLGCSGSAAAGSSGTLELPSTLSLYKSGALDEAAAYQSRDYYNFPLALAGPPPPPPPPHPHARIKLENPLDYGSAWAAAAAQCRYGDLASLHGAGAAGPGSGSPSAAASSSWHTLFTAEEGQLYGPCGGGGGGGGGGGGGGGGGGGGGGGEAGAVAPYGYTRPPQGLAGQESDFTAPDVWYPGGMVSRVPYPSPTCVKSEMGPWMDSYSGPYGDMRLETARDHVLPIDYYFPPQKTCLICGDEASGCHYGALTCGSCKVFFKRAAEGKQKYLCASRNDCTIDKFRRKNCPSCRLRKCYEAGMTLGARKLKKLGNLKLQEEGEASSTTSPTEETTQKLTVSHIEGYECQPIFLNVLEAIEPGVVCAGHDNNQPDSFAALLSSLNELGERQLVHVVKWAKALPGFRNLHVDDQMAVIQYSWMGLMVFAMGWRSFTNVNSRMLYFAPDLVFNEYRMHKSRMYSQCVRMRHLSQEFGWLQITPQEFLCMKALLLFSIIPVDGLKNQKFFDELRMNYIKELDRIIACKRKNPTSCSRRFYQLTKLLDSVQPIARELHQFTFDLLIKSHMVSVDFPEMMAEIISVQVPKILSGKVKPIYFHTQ
T1 sequence (P40337 whole entry, looked up): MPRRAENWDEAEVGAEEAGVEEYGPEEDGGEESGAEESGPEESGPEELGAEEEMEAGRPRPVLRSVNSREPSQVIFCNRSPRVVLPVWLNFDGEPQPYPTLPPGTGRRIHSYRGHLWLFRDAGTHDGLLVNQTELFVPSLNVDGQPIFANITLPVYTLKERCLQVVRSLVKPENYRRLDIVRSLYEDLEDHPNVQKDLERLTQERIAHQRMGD

[17] = Half life in Sprague-Dawley rat […] at 1 mg/kg, iv measured up to 8 hrs by HPLC-MS analysis; format: ADME, organism-based; conditions: in vivo
[18] = Cmax in Sprague-Dawley rat […] at 1 mg/kg, iv measured up to 8 hrs by HPLC-MS analysis; format: ADME, organism-based; parameters: route intravenous, dose 1 mg/kg, time <=8; conditions: in vivo
VCaP [19] = assay: Cytotoxicity against human VCaP cells assessed as growth inhibition at 0.5 uM after 4 days by CCK8 assay relative to control; format: functional; conditions: 96 h, time 4 day, read-out: GI
VCaP [20] = assay: Antitumour activity against human VcaP cells xenografted in AB zebra fish assessed as tumour growth inhibition at 25 uM after 5 days by […] dye based fluorescence microscopic method; format: functional; conditions: 120 h, time 5 day, read-out: TGI
[21] = target: T1, von Hippel-Lindau disease tumor suppressor/Androgen receptor (Homo sapiens); assay: Protac activity at VHL3/AR in human VCAP cells assessed as induction of AR degradation at 2 uM after 2 hrs in presence of proteasome inhibitor MG132 by western blot analysis relative to control; format: cell-based
VCaP [22] = assay: Antitumour activity against human VcaP cells xenografted in AB zebra fish assessed as tumour growth inhibition at 8.3 uM after 5 days by […] dye based fluorescence microscopic method; format: functional; conditions: 120 h, time 5 day, read-out: TGI
[23] = target: T1, von Hippel-Lindau disease tumor suppressor/Androgen receptor (Homo sapiens); assay: Protac activity at VHL3//AR in human VCAP cells assessed as induction of AR degradation at 2 uM after 2 hrs in presence of E1 inhibitor MLN4924 by western blot analysis relative to control; format: cell-based
[24] = target: T1, von Hippel-Lindau disease tumor suppressor/Androgen receptor (Homo sapiens); assay: Protac activity at VHL3/AR in human VCAP cells assessed as induction of AR degradation at 2 uM after 2 hrs in presence of VHL-3 by western blot analysis; format: cell-based
[25] = target: T1, von Hippel-Lindau disease tumor suppressor/Androgen receptor (Homo sapiens); assay: Protac activity at VHL3/AR in human VCAP cells assessed as induction of AR degradation at 2 uM after 4.5 hrs by western blot analysis relative to control; format: cell-based
VCaP [26] = assay: Cytotoxicity against human VCaP cells assessed as growth inhibition at 1 uM after 4 days by CCK8 assay relative to control; format: functional; conditions: 96 h, time 4 day, read-out: GI
[27] = AUC in Sprague-Dawley rat […] at 1 mg/kg, iv measured up to 8 hrs by HPLC-MS analysis; format: ADME, organism-based; parameters: route intravenous, dose 1 mg/kg, time <=8; conditions: in vivo
[28] = target: T1, von Hippel-Lindau disease tumor suppressor/Androgen receptor (Homo sapiens); assay: Protac activity at VHL3/AR in human VCAP cells assessed as induction of AR degradation at 2 uM by western blot analysis; format: cell-based; conditions: time 2-4.5 hrs, TDE = time-dependent effect
[29] = Toxicity in AB zebra fish assessed as obvious precipitation at 50 to 100 uM after 5 days; parameters: species or system Danio rerio; conditions: zebrafish, 120 h, dose 50-100 µM, time 5 day

Q: What does the source list for `N#Cc1ccc(O[C@H]2C[C@H]3CC[C@@H](C2)N3C(=O)c2ccc(N3CCN(CCCCCCCNc4cccc5c4C(=O)N(C4CCC(=O)NC4=O)C5=O)CC3)cc2)cc1Cl` (stereo partly drawn)?
A: growth inhibition (GI) (VCaP [1]): Dose-dependent effect; inhibition of growth at 4 µM (VCaP [2]): 47.2%; inhibition of growth at 0.16 µM (VCaP [3]): 15.7%; inhibition of growth at 0.8 µM (VCaP [4]): 42.4%

Q: With `N#Cc1ccc(O[C@H]2C[C@H]3CC[C@@H](C2)N3C(=O)c2ccc(N3CCN(CCCCCCCCCNc4cccc5c4C(=O)N(C4CCC(=O)NC4=O)C5=O)CC3)cc2)cc1Cl` (stereo partly drawn) as the compound, how does the “growth inhibition (GI)” value (VCaP [1]) read?
A: Dose-dependent effect

Q: What about the inhibition of growth at 4 µM (VCaP [2]) of the same compound?
A: 42.1%

Q: And the inhibition of growth at 0.16 µM (VCaP [3])?
A: 27.7%

Q: And the inhibition of growth at 0.032 µM (VCaP [5])?
A: 15.4%

Q: And the inhibition of growth at 0.8 µM (VCaP [4])?
A: 42.5%

Q: Which results are given for `CNC(=O)c1ccc(N2C(=S)N(c3ccc(C#N)c(C(F)(F)F)c3)C(=O)C2(C)C)cc1F` [ENZALUTAMIDE]?
A: mortality at 120 h, 5 µM [6]: 0%; inhibition in vivo at 5 µM (VCaP [7]): 49%; mortality at 120 h, up to 200 µM [8]: 100%; Activity [9]: 10%

Q: What does the source list for `N#Cc1ccc(O[C@H]2C[C@H]3CC[C@@H](C2)N3C(=O)c2ccc(N3CCN(CCCCCCCCNc4cccc5c4C(=O)N(C4CCC(=O)NC4=O)C5=O)CC3)cc2)cc1Cl` (stereo partly drawn)?
A: growth inhibition (GI) (VCaP [1]): Dose-dependent effect; inhibition of growth at 4 µM (VCaP [2]): 51.2%; inhibition of growth at 0.16 µM (VCaP [3]): 22.9%; inhibition of growth at 0.032 µM (VCaP [5]): 0.07%; inhibition of growth at 0.8 µM (VCaP [4]): 41.5%

Q: For `Cc1ncsc1-c1ccc([C@H](C)NC(=O)[C@@H]2C[C@@H](O)CN2C(=O)[C@@H](NC(=O)COCCN2CCN(c3ncc(C(=O)N4[C@@H]5CC[C@H]4C[C@@H](Oc4ccc(C#N)c(Cl)c4)C5)cn3)CC2)C(C)(C)C)cc1`, which MNTC at 120 h [10] is on record?
A: 25 µM

Q: And the mortality at 120 h [11]?
A: 0%

Q: And the inhibition of growth at 0.25 µM (VCaP [12])?
A: 56.4%

Q: And the inhibition of growth at 0.125 µM (VCaP [13])?
A: 40.3%

Q: What about the inhibition in vivo at 2.8 µM (VCaP [14]) of the same compound?
A: 28%

Q: What about the Activity [15] of the same compound?
A: Non-Toxic

Q: And the Activity [16]?
A: Active

Q: What about the half-life [17] of the same compound?
A: 34.2 min

Q: And the Cmax [18]?
A: 14400 ng/mL

Q: What about the inhibition of growth at 0.5 µM (VCaP [19]) of the same compound?
A: 66.1%

Q: And the inhibition in vivo at 25 µM (VCaP [20])?
A: 61%

Q: What about the Activity [21] of the same compound?
A: inactive

Q: And the inhibition in vivo at 8.3 µM (VCaP [22])?
A: 44%

Q: And the Activity [23]?
A: inactive

Q: What about the Activity [24] of the same compound?
A: Active

Q: And the Activity [25]?
A: Active

Q: And the inhibition of growth at 1 µM (VCaP [26])?
A: 69.6%

Q: What about the AUC at 8 h [27] of the same compound?
A: 1770 ng·h/mL

Q: And the Activity [28]?
A: Tde

Q: What about the Activity [29] of the same compound?
A: Toxic
